Source: ChEMBL document CHEMBL3593193, “Discovery of 3,6-dihydroimidazo[4,5-d]pyrrolo[2,3-b]pyridin-2(1H)-one derivatives as novel JAK inhibitors” (Bioorg Med Chem, 2015)

Experiments:
[1] = target: T1, Tyrosine-protein kinase JAK3 (Homo sapiens, UniProt P52333)
T1 sequence (P52333 whole entry): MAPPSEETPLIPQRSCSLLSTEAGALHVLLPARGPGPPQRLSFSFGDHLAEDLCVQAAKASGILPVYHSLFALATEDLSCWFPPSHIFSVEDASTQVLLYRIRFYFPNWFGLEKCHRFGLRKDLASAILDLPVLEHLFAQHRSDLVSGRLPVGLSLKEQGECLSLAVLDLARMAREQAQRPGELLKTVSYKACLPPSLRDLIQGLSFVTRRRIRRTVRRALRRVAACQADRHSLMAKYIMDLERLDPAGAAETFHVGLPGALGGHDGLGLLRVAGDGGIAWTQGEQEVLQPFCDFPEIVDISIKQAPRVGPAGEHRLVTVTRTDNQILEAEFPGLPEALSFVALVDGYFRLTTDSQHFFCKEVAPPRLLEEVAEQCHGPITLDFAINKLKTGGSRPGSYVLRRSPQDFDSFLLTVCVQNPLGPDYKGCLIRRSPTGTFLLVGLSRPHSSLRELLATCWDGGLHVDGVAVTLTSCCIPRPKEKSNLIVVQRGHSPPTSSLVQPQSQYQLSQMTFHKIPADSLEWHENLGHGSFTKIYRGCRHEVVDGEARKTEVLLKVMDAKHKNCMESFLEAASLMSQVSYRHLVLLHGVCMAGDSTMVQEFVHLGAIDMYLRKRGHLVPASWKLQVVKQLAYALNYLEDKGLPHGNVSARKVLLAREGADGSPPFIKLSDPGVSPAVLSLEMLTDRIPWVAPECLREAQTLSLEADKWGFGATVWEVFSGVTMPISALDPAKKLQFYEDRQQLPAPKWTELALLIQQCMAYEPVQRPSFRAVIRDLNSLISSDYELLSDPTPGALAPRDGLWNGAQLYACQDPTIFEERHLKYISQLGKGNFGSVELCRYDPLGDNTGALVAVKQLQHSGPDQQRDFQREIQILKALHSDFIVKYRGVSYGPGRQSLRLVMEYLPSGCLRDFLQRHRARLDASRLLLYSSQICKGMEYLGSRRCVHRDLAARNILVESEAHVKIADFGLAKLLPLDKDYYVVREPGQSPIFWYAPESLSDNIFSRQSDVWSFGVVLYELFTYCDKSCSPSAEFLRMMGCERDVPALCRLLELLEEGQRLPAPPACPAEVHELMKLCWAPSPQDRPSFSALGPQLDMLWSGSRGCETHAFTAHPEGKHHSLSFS
Description: Inhibition of human JAK3 kinase domain using biotin-Lyn-substrate-2 as substrate and ATP incubated for 1 hr by ELISA method

[2] = target: Tyrosine-protein kinase JAK2 (Homo sapiens, UniProt O60674)
Description: Inhibition of human JAK2 kinase domain using biotin-Lyn-substrate-2 as substrate and ATP incubated for 1 hr by ELISA method

cells = settings: Rattus norvegicus, Lewis, T-cell, 72 h
Description: Inhibition of JAK1/JAK3 in Lewis rat splenocytes assessed as reduction in IL2-induced T cell proliferation incubated for 3 days by alamar blue assay

[3] = target: Tyrosine-protein kinase JAK1 (Homo sapiens, UniProt P23458)
Description: Inhibition of human JAK1 kinase domain using biotin-Lyn-substrate-2 as substrate and ATP incubated for 1 hr by ELISA method

in vitro = settings: Sprague-Dawley, rat, liver microsomes
CYP3A4 [4] = target: T2, CYP3A4 (Homo sapiens, UniProt P08684); assay: Time dependent inhibition of CYP3A4 in human liver microsomes assessed as remaining enzyme activity by measuring midazolam to 1'-hydroxymidazolam conversion at 5 uM pre-incubated for 30 mins before midazolam addition by LC-MS/MS method; type: ADME; settings: probe midazolam (conversion to 1'-hydroxymidazolam), read-out: Activity
Liver microsome = settings: rat, microsomes, 0.5 h, 2 µM
CYP3A4 [5] = target: T2, CYP3A4; assay: Reversible inhibition of CYP3A4 in human liver microsomes assessed as remaining enzyme activity by measuring midazolam to 1'-hydroxymidazolam conversion at 5 uM pre-incubated for 30 mins before midazolam addition by LC-MS/MS method; type: ADME; settings: probe midazolam (conversion to 1'-hydroxymidazolam), read-out: Activity

Sequence of Tyrosine-protein kinase JAK1 (P23458 whole entry): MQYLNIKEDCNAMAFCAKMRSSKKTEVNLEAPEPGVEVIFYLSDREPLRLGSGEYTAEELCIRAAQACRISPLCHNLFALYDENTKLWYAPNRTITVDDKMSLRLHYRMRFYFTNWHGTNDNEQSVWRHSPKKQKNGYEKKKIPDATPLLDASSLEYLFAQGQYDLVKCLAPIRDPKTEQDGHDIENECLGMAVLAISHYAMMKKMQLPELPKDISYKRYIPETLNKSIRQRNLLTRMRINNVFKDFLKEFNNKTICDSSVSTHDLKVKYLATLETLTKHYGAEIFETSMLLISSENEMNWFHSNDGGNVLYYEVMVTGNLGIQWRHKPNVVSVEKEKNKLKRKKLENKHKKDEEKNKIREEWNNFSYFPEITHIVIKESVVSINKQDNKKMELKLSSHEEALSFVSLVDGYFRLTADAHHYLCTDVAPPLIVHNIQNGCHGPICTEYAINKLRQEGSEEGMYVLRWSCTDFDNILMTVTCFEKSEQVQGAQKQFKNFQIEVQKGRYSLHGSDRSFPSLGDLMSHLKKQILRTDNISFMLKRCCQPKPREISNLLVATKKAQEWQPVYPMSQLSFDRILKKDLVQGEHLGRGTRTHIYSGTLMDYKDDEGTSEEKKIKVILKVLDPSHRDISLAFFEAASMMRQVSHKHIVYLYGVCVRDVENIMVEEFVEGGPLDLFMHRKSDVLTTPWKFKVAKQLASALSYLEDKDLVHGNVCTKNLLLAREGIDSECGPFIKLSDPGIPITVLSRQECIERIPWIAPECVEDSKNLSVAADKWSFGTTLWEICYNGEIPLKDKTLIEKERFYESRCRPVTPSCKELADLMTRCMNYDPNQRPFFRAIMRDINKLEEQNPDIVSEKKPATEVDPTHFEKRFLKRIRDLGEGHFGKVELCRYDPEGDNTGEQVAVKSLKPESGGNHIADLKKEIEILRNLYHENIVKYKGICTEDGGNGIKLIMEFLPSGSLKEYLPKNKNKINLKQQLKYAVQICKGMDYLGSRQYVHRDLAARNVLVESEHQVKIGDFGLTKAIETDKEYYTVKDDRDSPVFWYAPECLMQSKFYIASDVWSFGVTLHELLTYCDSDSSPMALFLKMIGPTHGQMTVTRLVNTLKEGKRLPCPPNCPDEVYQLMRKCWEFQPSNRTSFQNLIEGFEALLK
T2 sequence (P08684 whole entry): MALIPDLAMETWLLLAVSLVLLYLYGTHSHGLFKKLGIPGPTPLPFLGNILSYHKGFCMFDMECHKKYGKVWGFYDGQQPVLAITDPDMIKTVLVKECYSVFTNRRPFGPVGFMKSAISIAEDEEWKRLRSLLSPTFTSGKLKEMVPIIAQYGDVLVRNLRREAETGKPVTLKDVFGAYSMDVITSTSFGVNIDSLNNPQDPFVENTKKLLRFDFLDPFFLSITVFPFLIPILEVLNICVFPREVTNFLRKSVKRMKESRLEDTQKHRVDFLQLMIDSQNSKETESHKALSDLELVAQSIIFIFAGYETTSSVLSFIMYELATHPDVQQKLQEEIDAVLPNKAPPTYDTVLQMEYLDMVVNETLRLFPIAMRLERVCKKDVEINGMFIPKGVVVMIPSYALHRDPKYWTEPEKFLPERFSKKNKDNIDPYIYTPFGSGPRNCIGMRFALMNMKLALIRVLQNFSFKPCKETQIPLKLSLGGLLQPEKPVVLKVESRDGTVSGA
Sequence of Tyrosine-protein kinase JAK2 (O60674 whole entry): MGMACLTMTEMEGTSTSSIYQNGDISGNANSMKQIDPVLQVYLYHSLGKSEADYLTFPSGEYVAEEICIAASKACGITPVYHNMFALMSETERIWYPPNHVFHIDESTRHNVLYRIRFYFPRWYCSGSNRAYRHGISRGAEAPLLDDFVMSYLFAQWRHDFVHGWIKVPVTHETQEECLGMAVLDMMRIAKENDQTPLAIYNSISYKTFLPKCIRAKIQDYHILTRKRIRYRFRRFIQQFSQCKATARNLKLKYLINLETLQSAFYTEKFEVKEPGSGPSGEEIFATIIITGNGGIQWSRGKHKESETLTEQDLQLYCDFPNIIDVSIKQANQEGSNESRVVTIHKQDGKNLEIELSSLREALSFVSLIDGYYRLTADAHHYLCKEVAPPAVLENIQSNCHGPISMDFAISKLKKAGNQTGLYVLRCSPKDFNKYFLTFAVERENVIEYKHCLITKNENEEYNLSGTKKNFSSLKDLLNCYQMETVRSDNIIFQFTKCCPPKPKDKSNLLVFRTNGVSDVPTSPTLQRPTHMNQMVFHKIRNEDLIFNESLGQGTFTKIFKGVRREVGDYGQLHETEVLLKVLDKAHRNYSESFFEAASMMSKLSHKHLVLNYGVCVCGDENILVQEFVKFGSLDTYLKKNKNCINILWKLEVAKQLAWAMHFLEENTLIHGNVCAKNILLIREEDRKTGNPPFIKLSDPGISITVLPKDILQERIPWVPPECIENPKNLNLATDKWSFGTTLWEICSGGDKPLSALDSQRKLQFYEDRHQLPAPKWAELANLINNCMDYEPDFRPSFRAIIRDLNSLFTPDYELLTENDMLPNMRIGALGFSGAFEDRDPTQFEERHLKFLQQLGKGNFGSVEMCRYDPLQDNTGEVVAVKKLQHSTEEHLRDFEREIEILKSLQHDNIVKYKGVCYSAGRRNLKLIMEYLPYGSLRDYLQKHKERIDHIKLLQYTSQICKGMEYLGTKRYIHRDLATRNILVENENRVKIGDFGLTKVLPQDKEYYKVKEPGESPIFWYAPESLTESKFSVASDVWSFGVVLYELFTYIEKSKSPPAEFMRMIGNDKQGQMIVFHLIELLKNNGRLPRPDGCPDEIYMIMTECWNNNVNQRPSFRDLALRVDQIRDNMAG

SMILES: O=c1[nH]c2cnc3[nH]ccc3c2n1C1CCNCC1
- IC50 [1]: 1200 nM
- IC50 [2]: 1300 nM
- IC50 (cells): 2800 nM

SMILES: O=c1[nH]c2cnc3[nH]ccc3c2n1CC1CCCCC1
- IC50 [1]: 60 nM
- IC50 [2]: 88 nM
- IC50 [3]: 1000 nM
- IC50 (cells): 860 nM
- CLint scaled at 0.5 h, 2 µM (in vitro): 802 mL/min/kg

SMILES: O=c1[nH]c2cnc3[nH]ccc3c2n1C1CCOCC1
- activity at 30 min, 5 µM (CYP3A4 [4]): 90%
- IC50 [1]: 270 nM
- IC50 [3]: 520 nM
- CLH (Liver microsome): Stable
- IC50 (cells): 1400 nM

SMILES: C[C@@H]1CCCC[C@@H]1n1c(=O)[nH]c2cnc3[nH]ccc3c21
- activity at 30 min, 5 µM (CYP3A4 [4]): 49%
- activity at 30 min, 5 µM (CYP3A4 [5]): 95%
- IC50 [2]: 4.4 nM
- IC50 [3]: 14 nM
- IC50 (cells): 32 nM
- CLint scaled at 0.5 h, 2 µM (in vitro): 300 mL/min/kg

SMILES: CC[C@@H]1CCCC[C@@H]1n1c(=O)[nH]c2cnc3[nH]ccc3c21
- IC50 [1]: 3 nM
- IC50 [2]: 3.6 nM
- IC50 [3]: 18 nM
- IC50 (cells): 36 nM
- CLint scaled at 0.5 h, 2 µM (in vitro): > 1000 mL/min/kg

SMILES: CS(=O)(=O)N1CCC[C@H](n2c(=O)[nH]c3cnc4[nH]ccc4c32)C1
- IC50 [1]: 460 nM
- IC50 [2]: 850 nM

SMILES: O=c1[nH]c2cnc3[nH]ccc3c2n1C1CCCC1
- IC50 [1]: 180 nM
- IC50 [2]: 97 nM
- IC50 [3]: 110 nM

SMILES: CS(=O)(=O)N1CCC(n2c(=O)[nH]c3cnc4[nH]ccc4c32)CC1
- IC50 [1]: 710 nM
- IC50 [2]: 140 nM
- IC50 [3]: 140 nM

SMILES: CC1CCCC(n2c(=O)[nH]c3cnc4[nH]ccc4c32)C1 (centres undefined)
- IC50 [1]: 21 nM
- IC50 [2]: 23 nM
- IC50 [3]: 430 nM
- IC50 (cells): 1000 nM

SMILES: C[C@H]1CCCC[C@H]1n1c(=O)[nH]c2cnc3[nH]ccc3c21
- IC50 [1]: 27 nM
- IC50 [2]: 17 nM
- IC50 [3]: 28 nM
- IC50 (cells): 110 nM

SMILES: CN(c1ccnc2[nH]ccc12)C1CCCCC1
- IC50 [1]: 1100 nM
- IC50 [2]: 1800 nM
- IC50 [3]: 2900 nM

SMILES: N#CCC(=O)N1CCC[C@@H](n2c(=O)[nH]c3cnc4[nH]ccc4c32)C1
- IC50 [1]: 28 nM
- IC50 [2]: 17 nM
- IC50 [3]: 20 nM
- IC50 (cells): 310 nM

SMILES: CS(=O)(=O)N1CCC[C@@H](n2c(=O)[nH]c3cnc4[nH]ccc4c32)C1
- IC50 [1]: 63 nM
- IC50 [2]: 82 nM
- IC50 [3]: 230 nM
- IC50 (cells): 1700 nM

SMILES: CC1CCC(n2c(=O)[nH]c3cnc4[nH]ccc4c32)CC1 (centres undefined)
- IC50 [1]: 42 nM
- IC50 [2]: 23 nM
- IC50 [3]: 24 nM
- IC50 (cells): 120 nM

SMILES: CC1(C)CCCCC1n1c(=O)[nH]c2cnc3[nH]ccc3c21 (centres undefined)
- IC50 [1]: 69 nM
- IC50 [2]: 85 nM
- IC50 [3]: 90 nM
- IC50 (cells): 110 nM

SMILES: C[C@@H]1CCN(C(=O)CC#N)C[C@@H]1n1c(=O)n(C)c2cnc3[nH]ccc3c21 (racemic)
- IC50 [1]: 5 nM
- IC50 [2]: 7.3 nM
- IC50 [3]: 29 nM
- IC50 (cells): 158 nM

SMILES: O=c1[nH]c2cnc3[nH]ccc3c2n1C1CCCCCC1
- IC50 [1]: 22 nM
- IC50 [2]: 23 nM
- IC50 [3]: 30 nM
- IC50 (cells): 74 nM
- CLint scaled at 0.5 h, 2 µM (in vitro): 272 mL/min/kg

SMILES: O=c1[nH]c2cnc3[nH]ccc3c2n1C1CCCCC1
- IC50 [1]: 54 nM
- IC50 [2]: 43 nM
- IC50 [3]: 79 nM
- IC50 (cells): 160 nM
- CLint scaled at 0.5 h, 2 µM (in vitro): 153 mL/min/kg

SMILES: C[C@@H]1CCN(C(=O)CC#N)C[C@@H]1n1c(=O)[nH]c2cnc3[nH]ccc3c21 (racemic)
- activity at 30 min, 5 µM (CYP3A4 [4]): 86%
- IC50 [1]: 1.1 nM
- IC50 [2]: 2.6 nM
- IC50 [3]: 1.5 nM
- CLH (Liver microsome): Stable
- IC50 (cells): 36 nM
